{"source": "patent US20130184337A1", "about": "“SODIUM ASCORBATE STIMULATION OF ELASTOGENESIS” (THE HOSPITAL FOR SICK CHILDREN, priority 2012, published 2013)", "assay_type_in_all_cases": "cell-based, human", "key": {"[1]": {"test_system": "intracellular tropoelastin", "test": "Western blot of intracellular tropoelastin", "settings": "50-200 μM, 20-hour-old cultures, 5% FBS", "method": "Western Blots—At the end of indicated experiments, cells were lysed with NP-40 buffer containing a cocktail of broad spectrum inhibitors of proteinases and phosphatases. The 50 μg aliquots of protein extract were then resolved by SDS-PAGE gel (4-12% gradient) in reducing conditions and analyzed by Western blot with antibodies indicated in figure legends, as previously described. Initial blots were also re-probed with monoclonal anti-β-actin antibody (Cell Signaling Technology Inc., Danvers, Mass.) to confirm the equal protein loading. The degree of expression was measured by densitometry."}, "[2]": {"test_system": "tropoelastin mRNA", "test": "RT-PCR of tropoelastin mRNA normalized to GAPDH mRNA", "settings": "50-200 μM, 18 hours, medium with 5% FBS", "method": "One-Step RT-PCR Analysis—The confluent cultures of skin fibroblasts were treated with or without the reagents of interest for different periods of time as indicated in the figure legend. Total RNA was extracted using the RNeasy Mini Kit, and the one-step RT-PCR reactions were set up with the RT-PCR Kit, according to the manufacturer's (Qiagen, Mississauga, ON) instructions. The amounts of tropoelastin mRNA were always normalized to the amount of GAPDH mRNA."}, "[3]": {"test_system": "reactive oxygen species (ROS)", "test": "Intracellular ROS with CM-H2DCFDA probe (fluorescence microscope, flow cytophotometry)", "settings": "100 μM, 2 hours", "method": "Quantification of Intracellular free radicals-reactive oxygen species (ROS)—To assess the levels of ROS, quadruplicate cultures of normal skin fibroblasts were exposed to 10 μM of ROS-sensitive CM-H2DCFDA fluorescent probe (Molecular Probes, Eugene, Oreg.) for 30 minutes. This probe passively diffuses into the cell interior and only upon oxidation is a fluorescent product released that can be visualized under a fluorescent microscope or captured by flow cytophotometry when excited at 480 nm. Fibroblasts were then maintained for 30 minutes in the presence or absence of 400 μM probenecid, then incubated either for 2 or 24 hours with and without 100 μM AA or 100 μM SA. At the end of these periods the images were captured using a fluorescent microscope under identical parameters of contrast and brightness. The ROS production was also assessed by flow cytophotometry (λ excitation 480 nm; λ emission 520 nm), using FACSCalibur, Beckton Dickinson Instrument."}, "[4]": {"test_system": "explants of dermal scars", "test": "Organ culture of skin explants (histochemistry, insoluble elastin)", "settings": "200 μM SA", "method": "Organ culture of skin explants—Fragments of normal skin, stretch-marked skin and dermal scars collected during plastic surgery procedures were cut into multiple 4 mm2 pieces and maintained for 7 days in DMEM medium containing 5% FBS, […] The parallel quadruplicate explants from each experimental group were additionally maintained in the presence 2 μCi of [3H]-valine/ml and then subjected to the assay of insoluble elastin. The parallel explants from each experimental groups were also evaluated after pentachrome Movat's staining which allows for clear marking of elastic fibers. In each experimental group, 50 sections derived from quadruplicate explants were analyzed."}, "[5]": {"test_system": "fibroblasts derived from dermal stretch marks", "test": "Collagen and elastic fiber deposition in stretch-mark fibroblast cultures", "settings": "200 μM, 24 hour-old cultures", "method": "(§1) Cell Cultures-Fibroblasts initially grew out from the explants of these full thickness skin biopsies and were maintained. The primary cultures of fat-derived fibroblasts obtained from Thermogenesis (Rancho Cordova, Calif.) were also tested. In all described experiments, 2-4 passages of both kinds of fibroblasts were used. In experiments aimed at assessing ECM production, cells were initially plated at a concentration of 100,000 cells/dish. […] Immuno-staining-All cultures maintained in the presence and absence of indicated reagents were either fixed in cold 100% methanol at -20° C. (for detection of elastin) or in 4% paraformaldehyde at room temperature (for detection of collagen I). The multiple parallel cultures were then incubated with 10 μg/ml of polyclonal antibody to tropoelastin (Elastin Products, Owensville, Mich.), or polyclonal antibody to collagen type I (Chemicon, Temecula, Calif.). Cultures were then incubated with the respective fluorescein-conjugated goat anti-rabbit, goat anti-mouse, or rabbit anti-goat secondary antibodies. Nuclei were counterstained with propidium iodide (Sigma, Sigma, St. Louis, Mo.). All of the cultures were then examined with a Nikon Eclipse […] microscope attached to a cooled CCD camera (QImaging, Retiga EX) and analyzed by the computer-generated morphometric analysis system (Image-Pro Plus software, Media Cybernetics, Silver Springs, Md.) as previously described. Quantitative Assays of Insoluble Elastin-Fibroblasts were grown to confluency in 35-mm culture dishes (100,000 cells/dish). Next, 2 μCi of [3H]-valine/ml (Amersham Biosciences Ltd. Oakville, Canada), were added to each dish along with or without the indicated treatments. At the end of each experiment, the levels of metabolically labeled NaOH-insoluble elastin present in individual cultures were assayed and normalized per their DNA content."}, "[6]": {"test_system": "normal skin explants", "test": "Organ culture of skin explants (Movat pentachrome morphometry, insoluble elastin)", "settings": "200 μM, 10-day-long daily treatment", "method": "Organ culture of skin explants—Fragments of normal skin, stretch-marked skin and dermal scars collected during […] 5% FBS, in the presence or absence of 200 μM SA alone or in combination with 200 μM DMOG as described in figure legends. The parallel quadruplicate explants from each experimental group were additionally maintained in the presence 2 μCi of [3H]-valine/ml and then subjected to the assay of insoluble elastin. The parallel explants from each experimental groups were also evaluated after pentachrome Movat's staining which allows for clear marking of elastic fibers. In each experimental group, 50 sections derived from quadruplicate explants were analyzed."}, "[7]": {"test_system": "fat tissue-derived fibroblasts", "test": "Elastin deposition (immuno-staining morphometry, insoluble elastin assay) in fat-derived fibroblasts", "settings": "50-200 μM, on average, p<0.01", "method": "as §1, with “Cultures were then incubated with the respective fluorescein-conjugated goat anti-rabbit, goat anti-mouse, or rabbit anti-goat secondary antibodies. Nuclei were counterstained with propidium iodide (Sigma, Sigma, St. Louis, Mo.).” left out, “Next, 2 μCi of [3H]-valine/ml (Amersham Biosciences Ltd. Oakville, Canada), were added to each dish along with or without the indicated treatments. At the end of each experiment, the levels of metabolically labeled NaOH-insoluble elastin present in individual cultures were assayed and normalized per their DNA content.” left out"}}, "data": [{"smiles": "O=C1O[C@H]([C@@H](O)CO)C([O-])=C1O.[Na+]", "note": "[SA, (+)-sodium L-ascorbate]", "values": [{"measurement": "levels of newly synthesized tropoelastin", "setting": "[1]", "value": "increase in the levels of newly synthesized tropoelastin"}, {"measurement": "levels of tropoelastin-encoding mRNA", "setting": "[2]", "value": "significant and dose-dependent up-regulation"}, {"measurement": "levels of intracellular ROS", "setting": "[3]", "value": "significantly lower levels of ROS"}, {"measurement": "production of new elastic fibers", "setting": "[4]", "value": "initiated production of new elastic fibers"}, {"measurement": "production of collagen fibers", "setting": "[5]", "value": "significantly up-regulated"}, {"measurement": "production of elastic fibers / elastogenesis", "setting": "[5]", "value": "significantly up-regulated"}, {"measurement": "deposition of new elastic fibers", "setting": "[6]", "value": "enhanced deposition of new elastic fibers"}, {"measurement": "increase in elastin deposition", "setting": "[7]", "value": 22, "unit": "%+/−4%"}]}]}
